Source: the NIST ThermoML archive (doi:10.1007/s10765-008-0549-z)

Details: Liquid, Hot wire method

Cc1ccccc1 [toluene]
Details	thermal conductivity [W/m/K]
274.65 K	0.1387
275.4 K	0.1382
275.95 K	0.1384
276.31 K	0.138
287.33 K	0.1345
288.72 K	0.1336
289.65 K	0.1335
294.45 K	0.1318
294.69 K	0.1318
295.08 K	0.1321
295.47 K	0.1314
295.79 K	0.132
297.45 K	0.1318
298.6 K	0.1313
300.43 K	0.1303
307.66 K	0.1287
308.62 K	0.1283
310.22 K	0.1274
314.69 K	0.1261
314.74 K	0.1264
315.55 K	0.1253
315.85 K	0.1254
316.7 K	0.1251
317.94 K	0.1251
319.32 K	0.1245
319.96 K	0.1245
327.65 K	0.1225
329.5 K	0.1214
330.77 K	0.1209
338.39 K	0.1188
339.77 K	0.1181
340.62 K	0.1181
355.63 K	0.114
355.95 K	0.114
357.02 K	0.1137
375.26 K	0.1086
375.71 K	0.1087
